The target of assay [1] is Delta-type opioid receptor (Rattus norvegicus, UniProt P33533). Put plainly: Inhibition of [3H]DSLET binding to rat brain membrane Opioid receptor delta 1.
Assay [2] concerns the target T1, Mu-type opioid receptor (Rattus norvegicus, UniProt P33535). Put plainly: Binding affinity towards Opioid receptor mu 1 in rat brain membrane using [3H]DAGO as radioligand. Type of assay: cell membranes.
In assay [3] the target is T2, Mu-type opioid receptor (Cavia porcellus, UniProt P97266). Nature of the assay: Inhibitory activity towards Opioid receptor mu 1 using guinea pig ileum (GPI) assay was determined for the compound. The assay is classed as tissue-based.
Assay [4] concerns the target Delta-type opioid receptor (Mus musculus, UniProt P32300). Nature of the assay: Inhibitory activity towards electrically induced contractions in mouse vas deferens expressing delta opioid receptor. The assay is classed as functional, tissue-based.
Assay [5] concerns the target T2, Mu-type opioid receptor. Put plainly: Inhibitory activity towards electrically induced contractions in guinea pig ileum expressing Opioid receptor mu 1. Type of assay: tissue-based.
The target of assay [6] is T2, Mu-type opioid receptor. Nature of the assay: Inhibitory activity towards electrically induced contractions in guinea pig ileum expressing mu opioid receptor. Type of assay: tissue-based.
The target of assay [7] is T1, Mu-type opioid receptor. Nature of the assay: Binding affinity towards mu Opioid receptor in rat brain membrane using [3H]DAGO as radioligand. The assay is classed as cell membranes.

Bridge positions count the residues as written; N and C are the ends. Square brackets hold non-standard residues; d marks the D form. Peptide text beside a SMILES is read from it. Orn = NCCC[C@H](N)C(=O)O

T2 sequence (P97266 whole entry): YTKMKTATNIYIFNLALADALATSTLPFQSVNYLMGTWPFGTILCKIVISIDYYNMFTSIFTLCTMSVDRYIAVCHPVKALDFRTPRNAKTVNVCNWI
Sequence of Delta-type opioid receptor (Rattus norvegicus, UniProt P33533) (P33533 whole entry): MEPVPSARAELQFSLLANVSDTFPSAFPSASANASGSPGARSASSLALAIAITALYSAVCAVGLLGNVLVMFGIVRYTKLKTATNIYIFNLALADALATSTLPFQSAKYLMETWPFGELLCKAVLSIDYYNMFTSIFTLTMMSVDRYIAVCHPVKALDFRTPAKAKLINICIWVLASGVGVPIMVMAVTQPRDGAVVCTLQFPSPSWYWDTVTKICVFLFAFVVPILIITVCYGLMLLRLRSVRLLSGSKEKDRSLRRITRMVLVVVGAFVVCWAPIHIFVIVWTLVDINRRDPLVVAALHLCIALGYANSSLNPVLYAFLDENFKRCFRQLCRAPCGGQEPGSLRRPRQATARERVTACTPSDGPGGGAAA
Sequence of Delta-type opioid receptor (Mus musculus, UniProt P32300) (P32300 whole entry): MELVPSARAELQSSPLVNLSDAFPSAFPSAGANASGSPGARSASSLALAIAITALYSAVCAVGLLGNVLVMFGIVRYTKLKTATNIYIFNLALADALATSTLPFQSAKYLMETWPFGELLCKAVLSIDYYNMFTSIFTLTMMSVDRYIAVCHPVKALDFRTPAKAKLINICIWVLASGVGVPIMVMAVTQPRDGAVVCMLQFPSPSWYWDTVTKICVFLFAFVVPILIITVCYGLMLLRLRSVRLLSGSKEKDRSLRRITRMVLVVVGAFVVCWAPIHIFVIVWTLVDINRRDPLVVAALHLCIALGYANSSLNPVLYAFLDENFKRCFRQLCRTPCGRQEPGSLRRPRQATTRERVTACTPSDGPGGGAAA
T1 sequence (P33535 whole entry): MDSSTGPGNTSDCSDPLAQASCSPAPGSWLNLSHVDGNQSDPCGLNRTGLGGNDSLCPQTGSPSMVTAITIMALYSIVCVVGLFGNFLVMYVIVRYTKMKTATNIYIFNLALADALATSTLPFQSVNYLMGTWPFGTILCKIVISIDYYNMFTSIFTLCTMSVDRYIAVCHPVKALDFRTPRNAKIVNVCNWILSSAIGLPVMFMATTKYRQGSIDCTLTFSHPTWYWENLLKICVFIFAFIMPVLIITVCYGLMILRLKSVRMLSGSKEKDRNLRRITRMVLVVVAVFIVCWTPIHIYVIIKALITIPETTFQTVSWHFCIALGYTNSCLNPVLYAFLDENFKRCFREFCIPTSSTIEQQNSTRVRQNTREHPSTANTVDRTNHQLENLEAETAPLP

The Ki is the equilibrium dissociation constant of an inhibitor or competing ligand from its target. High values mean weaker binding, low ones tighter binding. A word on the IC50: it is the concentration at which inhibition is half-maximal. Higher therefore signals weaker potency in that assay. In the case of `NC(=O)[C@@H]1CSSC[C@@H](NC(=O)[C@@H](N)Cc2ccc(O)cc2)C(=O)N[C@@H](Cc2ccccc2)C(=O)N1`, the Ki in assay [1] is 373 nM; at Mu-type opioid receptor [2], 11 nM. Besides, the IC50 against Mu-type opioid receptor [3] amounted to 64.7 nM.

Turning to `NC(=O)[C@@H]1CC(=O)NCCC[C@@H](NC(=O)[C@@H](N)Cc2ccc(O)cc2)C(=O)N[C@@H](Cc2ccc([N+](=O)[O-])cc2)C(=O)N1`, the values for the IC50 (in assay [4]; on Mu-type opioid receptor [5]) were over 100000 nM and 2340 nM, respectively. Moreover, the Ki was found to be 5060 nM in assay [1] and 273 nM at Mu-type opioid receptor [2].

As to `NC(=O)[C@H]1CC(=O)NCCC[C@@H](NC(=O)[C@@H](N)Cc2ccc(O)cc2)C(=O)N[C@@H](Cc2ccccc2)C(=O)N1`, the IC50 in assay [4] was found to be 4810 nM; against Mu-type opioid receptor [5] it was 632 nM. Besides, the Ki in assay [1] stood at 422 nM; on Mu-type opioid receptor [2] it was 21.7 nM.

As for `CN1C(=O)[C@H](NC(=O)[C@@H](N)Cc2ccc(O)cc2)CCCNC(=O)C[C@@H](C(N)=O)NC(=O)[C@@H]1Cc1ccccc1`, the IC50 in assay [4] amounted to 1380 nM; on Mu-type opioid receptor [5], 6460 nM. Besides, the figures for the Ki (in assay [1]; at Mu-type opioid receptor [2]) were 28100 nM and 3570 nM, respectively.

With `NC(=O)[C@@H]1CCNC(=O)C[C@@H](NC(=O)[C@@H](N)Cc2ccc(O)cc2)C(=O)N[C@@H](Cc2ccccc2)C(=O)N1`, the IC50 in assay [4] amounted to 2030 nM; at Mu-type opioid receptor [5], 279 nM. Also, the values for the Ki (in assay [1]; on Mu-type opioid receptor [2]) were 4170 nM and 24.8 nM, respectively.

Take `NC(=O)[C@@H]1CC(=O)NCCC[C@@H](NC(=O)[C@@H](N)Cc2ccc(O)cc2)C(=O)N[C@@H](Cc2ccccc2)C(=O)N1`: the IC50 in assay [4] came to 3880 nM; on Mu-type opioid receptor [6] it was 36.2 nM. For the same compound, the results for the Ki (in assay [1]; at Mu-type opioid receptor [2]) were 2220 nM and 10.4 nM, respectively.

In the case of `NC(=O)[C@@H]1CC(=O)NCCC[C@@H](NC(=O)[C@@H](N)Cc2ccc(O)cc2)C(=O)N[C@H](Cc2ccccc2)C(=O)N1`, the IC50 was over 8640 nM in assay [4] and over 21000 nM at Mu-type opioid receptor [5]. In addition, the Ki in assay [1] was over 380000 nM; at Mu-type opioid receptor [2], 3040 nM.

For the compound `NC(=O)[C@@H]1CC(=O)NCCC[C@H](NC(=O)[C@@H](N)Cc2ccc(O)cc2)C(=O)N[C@@H](Cc2ccccc2)C(=O)N1`, the IC50 in assay [4] was over 100000 nM; against Mu-type opioid receptor [5], 16800 nM. For the same compound, the figures for the Ki (in assay [1]; at Mu-type opioid receptor [7]) were over 60000 nM and 4830 nM, respectively.

Take `NC(=O)[C@@H]1CC(=O)NCCC[C@@H](NC(=O)[C@@H](N)Cc2ccc(O)cc2)C(=O)N[C@@H](CCc2ccccc2)C(=O)N1`: the figures for the IC50 (in assay [4]; at Mu-type opioid receptor [5]) were 1370 nM and 111 nM, respectively. Besides, the Ki turned out to be 849 nM in assay [1] and 11.9 nM at Mu-type opioid receptor [2].

`NC(=O)[C@@H]1CC(=O)NCCC[C@@H](NC(=O)[C@@H](N)Cc2ccc(O)cc2)C(=O)N[C@@H](C2CCCCC2)C(=O)N1`: the IC50 in assay [4] stood at 1660 nM; on Mu-type opioid receptor [5], 18400 nM. Moreover, the Ki in assay [1] came out at 3570 nM; at Mu-type opioid receptor [7], 445 nM.

`NC(=O)[C@@H]1CCCNC(=O)C[C@@H](NC(=O)[C@@H](N)Cc2ccc(O)cc2)C(=O)N[C@@H](Cc2ccccc2)C(=O)N1` (H-Y[dD]F[Orn]-NH2; lactam 2-4): the half-inhibitory concentration (IC50) is 8570 nM in assay [4] and 522 nM at Mu-type opioid receptor [5]. Also, the Ki in assay [1] was 1320 nM; at Mu-type opioid receptor [2] it was 9.55 nM.

Values taken from ChEMBL document CHEMBL1123894, “Structure-activity relationships of cyclic opioid peptide analogues containing a phenylalanine residue in the 3-position” (J Med Chem, 1987).
